# Measurements from ChEMBL document CHEMBL1201862, “PubChem BioAssay data set” (2004).
#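 1) Cells in 96-well plates. 2) Compound, 48 h, 5 concentrations. 3) Linear interpolation between surrounding doses. 4) Unreached endpoint = highest concentration. The concentration for 50% growth inhibition is given as GI50.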 Activity calls are given as the source filed them. Cut-off read from the data, not from the text of the source: active = GI50 up to about 1.1 µM and inactive = higher. Where a SMILES comes first, the peptide text is derived from it. The star is where a group is joined. Boc = CC(C)(C)OC(=O)*
# How the values were obtained:
# Experiment in all cases: NCI anticancer screen, dose series, 48 h
# [1] = system: OVCAR-3
# [2] = system: OVCAR-4
# [3] = system: HCC 2998
# [4] = system: UO-31
# [5] = system: T47D
# [6] = system: NCI/ADR-RES
# [7] = system: SR
# [8] = system: SW-620
# [9] = system: MDA-MB-231
# [10] = system: SF-295
# [11] = system: SF-268
# [12] = system: SK-MEL-28
# [13] = system: A498
# [14] = system: EKVX
# [15] = system: SF-539
# [16] = system: OVCAR-5
# [17] = system: NCI-H522
# [18] = system: A549
# [19] = system: SK-MEL-5
# [20] = system: BT-549
SMILES,GI50 [1],GI50 [2],GI50 [3],GI50 [4],GI50 [5],GI50 [6],GI50 [7],GI50 [8],GI50 [9],GI50 [10],GI50 [11],GI50 [12],GI50 [13],GI50 [14],GI50 [15],GI50 [16],GI50 [17],GI50 [18],GI50 [19],GI50 [20]
CNC(=O)CNC(=O)C(NC(=O)CNC(=O)C1CCCN1C(=O)C(C)NC(=O)C(NC(=O)OC(C)(C)C)C(C)C)C(C)C (stereo not given) (Boc-VAPGVG-NHMe; configuration not given here),> 100 µM (inactive),> 100 µM (inactive),> 100 µM (inactive),> 100 µM (inactive),> 100 µM (inactive),> 100 µM (inactive),> 100 µM (inactive),> 100 µM (inactive),> 100 µM (inactive),> 100 µM (inactive),> 100 µM (inactive),> 100 µM (inactive),> 100 µM (inactive),> 100 µM (inactive),> 100 µM (inactive),> 100 µM (inactive),> 100 µM (inactive),,,
Cc1ccc(-c2nc3n(c2/C=N\N=C(N)N)CCS3)cc1,,16.6 µM (inactive),11.6 µM (inactive),16.7 µM (inactive),13.2 µM (inactive),29.9 µM (inactive),59 µM (inactive),15.7 µM (inactive),16.3 µM (inactive),12.2 µM (inactive),14.9 µM (inactive),15.7 µM (inactive),16.8 µM (inactive),16 µM (inactive),15.2 µM (inactive),16.3 µM (inactive),2.79 µM (inactive),15.9 µM (inactive),14.2 µM (inactive),
C=C1C(=O)O[C@@H]2C(=O)[C@@H](C)CCC/C(C)=C/CC[C@@]3(C)O[C@@H]3C[C@@H]12,46.3 µM (inactive),79.4 µM (inactive),> 100 µM (inactive),92.7 µM (inactive),87.9 µM (inactive),95.3 µM (inactive),,20.8 µM (inactive),53.8 µM (inactive),> 100 µM (inactive),,> 100 µM (inactive),> 100 µM (inactive),37.7 µM (inactive),25.2 µM (inactive),> 100 µM (inactive),12.1 µM (inactive),> 100 µM (inactive),29.9 µM (inactive),
O=c1c(Cl)nsnc1Cl,5.69 µM (inactive),5.15 µM (inactive),19.4 µM (inactive),6.4 µM (inactive),3.08 µM (inactive),40.1 µM (inactive),1.95 µM (inactive),3.43 µM (inactive),19.3 µM (inactive),18.4 µM (inactive),26.4 µM (inactive),18.3 µM (inactive),,25.6 µM (inactive),12.9 µM (inactive),20.1 µM (inactive),2.02 µM (inactive),26.3 µM (inactive),16.5 µM (inactive),
CNC(=O)CNC(=O)C(NC(=O)CNC(=O)C1CCCN1C(=O)C(C)NC(=O)C(NC(C)=O)C(C)C)C(C)C (stereo not given) (Ac-VAPGVG-NHMe; configuration not given here),> 100 µM (inactive),> 100 µM (inactive),> 100 µM (inactive),> 100 µM (inactive),> 100 µM (inactive),> 100 µM (inactive),> 100 µM (inactive),> 100 µM (inactive),> 100 µM (inactive),> 100 µM (inactive),> 100 µM (inactive),> 100 µM (inactive),> 100 µM (inactive),> 100 µM (inactive),> 100 µM (inactive),> 100 µM (inactive),> 100 µM (inactive),,,
O=C1CC(C(OCc2ccccc2)C(OCc2ccccc2)C(OCc2ccccc2)C(COCc2ccccc2)OCc2ccccc2)CC(=O)N1 (stereo not given),> 100 µM (inactive),> 100 µM (inactive),> 100 µM (inactive),60.1 µM (inactive),,> 100 µM (inactive),> 100 µM (inactive),> 100 µM (inactive),,> 100 µM (inactive),> 100 µM (inactive),> 100 µM (inactive),> 100 µM (inactive),> 100 µM (inactive),,> 100 µM (inactive),,> 100 µM (inactive),> 100 µM (inactive),> 100 µM (inactive)
Nc1cc(N2CCOCC2)nc(=O)n1-c1ccc(Cl)cc1,> 100 µM (inactive),,> 100 µM (inactive),> 100 µM (inactive),> 100 µM (inactive),> 100 µM (inactive),> 100 µM (inactive),> 100 µM (inactive),,> 100 µM (inactive),,> 100 µM (inactive),> 100 µM (inactive),> 100 µM (inactive),> 100 µM (inactive),> 100 µM (inactive),,> 100 µM (inactive),> 100 µM (inactive),> 100 µM (inactive)
CC(C)COC(c1ccc2c(c1)OCO2)C(C)Br (stereo not given),16.2 µM (inactive),34.1 µM (inactive),18.4 µM (inactive),22.5 µM (inactive),,28.4 µM (inactive),21.2 µM (inactive),28.9 µM (inactive),35.9 µM (inactive),20 µM (inactive),25.2 µM (inactive),48.6 µM (inactive),33.4 µM (inactive),26.2 µM (inactive),23.3 µM (inactive),19.7 µM (inactive),18.7 µM (inactive),29.1 µM (inactive),18.7 µM (inactive),35.5 µM (inactive)
O=C1C(=C2SC(c3ccccc3)(c3ccccc3)c3ccccc32)C(=O)c2ccccc21,> 100 µM (inactive),> 100 µM (inactive),> 100 µM (inactive),> 100 µM (inactive),,> 100 µM (inactive),65.2 µM (inactive),> 100 µM (inactive),> 100 µM (inactive),> 100 µM (inactive),> 100 µM (inactive),> 100 µM (inactive),> 100 µM (inactive),> 100 µM (inactive),> 100 µM (inactive),> 100 µM (inactive),> 100 µM (inactive),> 100 µM (inactive),> 100 µM (inactive),> 100 µM (inactive)
NC1(c2cc3ccccc3s2)CCCCCC1,15.7 µM (inactive),14.4 µM (inactive),1.98 µM (inactive),14.4 µM (inactive),,15 µM (inactive),16.2 µM (inactive),16.3 µM (inactive),15.7 µM (inactive),18.3 µM (inactive),,16.7 µM (inactive),20.7 µM (inactive),18.7 µM (inactive),18 µM (inactive),15 µM (inactive),,18.1 µM (inactive),15.1 µM (inactive),17.7 µM (inactive)
O=C1/C(=N\NC(=S)Nc2ccc(Cl)cc2)c2cc([N+](=O)[O-])ccc2N1CN1CCOCC1,3.99 µM (inactive),10 µM (inactive),,3.78 µM (inactive),4.37 µM (inactive),2.2 µM (inactive),1.99 µM (inactive),4.37 µM (inactive),15 µM (inactive),4.97 µM (inactive),4.39 µM (inactive),10.9 µM (inactive),,,11.3 µM (inactive),,6.79 µM (inactive),8.22 µM (inactive),4 µM (inactive),
O=c1cc(-c2ccccc2)oc2ccc(Oc3nnnn3-c3ccccc3)cc12,> 100 µM (inactive),> 28.2 µM (inactive),> 100 µM (inactive),> 100 µM (inactive),12.1 µM (inactive),78.2 µM (inactive),> 33.1 µM (inactive),> 100 µM (inactive),,29.2 µM (inactive),11.8 µM (inactive),> 55.8 µM (inactive),90.2 µM (inactive),12.1 µM (inactive),27.7 µM (inactive),> 100 µM (inactive),70.5 µM (inactive),> 90.8 µM (inactive),> 100 µM (inactive),15.3 µM (inactive)
CO/N=C(\C(=O)[N-]n1cn[n+](CC(=O)OC(C)(C)C)c1)c1csc(NC(c2ccccc2)(c2ccccc2)c2ccccc2)n1,> 10 µM (inactive),> 10 µM (inactive),> 10 µM (inactive),> 10 µM (inactive),> 10 µM (inactive),> 10 µM (inactive),> 10 µM (inactive),> 10 µM (inactive),,> 10 µM (inactive),> 10 µM (inactive),> 10 µM (inactive),> 10 µM (inactive),> 10 µM (inactive),> 10 µM (inactive),> 10 µM (inactive),> 10 µM (inactive),> 10 µM (inactive),> 10 µM (inactive),> 10 µM (inactive)
CC(=O)OCC(OC(C)=O)C1C[C@H]2O[C@@H]3[C@H](C[C@H]2O1)O[C@@]1(C[C@@H]3C)C[C@H](C)[C@@H]2O[C@]3(C[C@@H]2O1)C[C@H]1O[C@H]2[C@H](C)[C@H]4OC(=O)CC5CC[C@H]6OC7[C@H]8O[C@]9(CC[C@H]%10CC(O)(CO)[C@H](CC[C@H]%11C[C@@H](C)C(O)(CO)C(C[C@@H]4O[C@H]2C[C@H]1O3)O%11)O%10)CC8O[C@@H]7[C@@H](O9)[C@H]6O5 (stereo not given in full),0.00655 µM (active),,0.00532 µM (active),0.0226 µM (active),,0.0201 µM (active),0.000581 µM (active),0.00492 µM (active),0.0705 µM (active),0.0043 µM (active),0.00986 µM (active),0.0303 µM (active),> 0.214 µM (active),0.0234 µM (active),,> 0.27 µM (active),0.000942 µM (active),0.00643 µM (active),0.00141 µM (active),0.00185 µM (active)
Cc1ccc(/C=C2\CCCc3ccccc3C2=O)cc1,15 µM (inactive),25.9 µM (inactive),,29.6 µM (inactive),,8.67 µM (inactive),13.9 µM (inactive),22.9 µM (inactive),9.62 µM (inactive),3.45 µM (inactive),11.2 µM (inactive),22.4 µM (inactive),,12 µM (inactive),13.8 µM (inactive),10.3 µM (inactive),6.25 µM (inactive),5.86 µM (inactive),,10.1 µM (inactive)
